Measured values as given in article PMC10819888, “Benzimidazole-Based Derivatives as Apoptotic Antiproliferative Agents: Design, Synthesis, Docking, and Mechanistic Studies” (Molecules, 2024).

Assays:
[1] = system: A498; assay: NCI-60 one-dose assay; type: cell-based; settings: Homo sapiens, A498 (Renal Cancer), read-out: Cell Inhibition Percent
[2] = system: A549/ATCC; assay: NCI-60 one-dose assay; type: cell-based; settings: Homo sapiens, A549/ATCC (Non-Small Cell Lung Cancer), read-out: Cell Inhibition Percent
[3] = system: COLO 205; assay: NCI-60 one-dose assay; type: cell-based; settings: Homo sapiens, COLO 205 (Colon Cancer), read-out: Cell Inhibition Percent
[4] = system: EKVX; assay: NCI-60 one-dose assay; type: cell-based; settings: Homo sapiens, EKVX (Non-Small Cell Lung Cancer), read-out: Cell Inhibition Percent
[5] = system: HCT-116; assay: NCI-60 one-dose assay; type: cell-based; settings: Homo sapiens, HCT-116 (Colon Cancer), read-out: Cell Inhibition Percent
[6] = system: HCT-15; assay: NCI-60 one-dose assay; type: cell-based; settings: Homo sapiens, HCT-15 (Colon Cancer), read-out: Cell Inhibition Percent
[7] = system: HL-60(TB); assay: NCI-60 one-dose assay; type: cell-based; settings: Homo sapiens, HL-60(TB) (Leukemia), read-out: Cell Inhibition Percent
[8] = system: IGROV1; assay: NCI-60 one-dose assay; type: cell-based; settings: Homo sapiens, IGROV-1, IGROV1 (ovarian cancer), read-out: Cell Inhibition Percent
[9] = system: LOX IMVI; assay: NCI-60 one-dose assay; type: cell-based; settings: Homo sapiens, LOX IMVI (Melanoma), read-out: Cell Inhibition Percent
[10] = system: M14; assay: NCI-60 one-dose assay; type: cell-based; settings: Homo sapiens, M14 (Melanoma), read-out: Cell Inhibition Percent
[11] = system: MALME-3M; assay: NCI-60 one-dose assay; type: cell-based; settings: Homo sapiens, MALME-3M (Melanoma), read-out: Cell Inhibition Percent
[12] = system: MCF7; assay: NCI-60 one-dose assay; type: cell-based; settings: Homo sapiens, MCF7 (Breast Cancer), read-out: Cell Inhibition Percent
[13] = system: MDA-MB 231; assay: NCI-60 one-dose assay; type: cell-based; settings: Homo sapiens, MDA-MB 231 (Breast Cancer), read-out: Cell Inhibition Percent
[14] = system: MDA-MB-435; assay: NCI-60 one-dose assay; type: cell-based; settings: Homo sapiens, MDA-MB-435 (Melanoma), read-out: Cell Inhibition Percent
[15] = system: NCI-H23; assay: NCI-60 one-dose assay; type: cell-based; settings: Homo sapiens, NCI-H23 (Non-Small Cell Lung Cancer), read-out: Cell Inhibition Percent
[16] = system: NCI-H322M; assay: NCI-60 one-dose assay; type: cell-based; settings: Homo sapiens, NCI-H322M (Non-Small Cell Lung Cancer), read-out: Cell Inhibition Percent
[17] = system: OVCAR-3; assay: NCI-60 one-dose assay; type: cell-based; settings: Homo sapiens, OVCAR-3 (ovarian cancer), read-out: Cell Inhibition Percent
[18] = system: OVCAR-5; assay: NCI-60 one-dose assay; type: cell-based; settings: Homo sapiens, OVCAR-5 (ovarian cancer), read-out: Cell Inhibition Percent
[19] = system: OVCAR-8; assay: NCI-60 one-dose assay; type: cell-based; settings: Homo sapiens, OVCAR-8 (ovarian cancer), read-out: Cell Inhibition Percent
[20] = system: PC-3; assay: NCI-60 one-dose assay; type: cell-based; settings: Homo sapiens, PC-3 (Prostate Cancer), read-out: Cell Inhibition Percent
[21] = system: RPMI-8226; assay: NCI-60 one-dose assay; type: cell-based; settings: Homo sapiens, RPMI-8226 (Leukemia), read-out: Cell Inhibition Percent
[22] = system: RXF 393; assay: NCI-60 one-dose assay; type: cell-based; settings: Homo sapiens, RXF 393 (Renal Cancer), read-out: Cell Inhibition Percent
[23] = system: SF-295; assay: NCI-60 one-dose assay; type: cell-based; settings: Homo sapiens, SF-295 (CNS cancer), read-out: Cell Inhibition Percent
[24] = system: SK-MEL-2; assay: NCI-60 one-dose assay; type: cell-based; settings: Homo sapiens, SK-MEL-2 (Melanoma), read-out: Cell Inhibition Percent
[25] = system: SK-MEL-5; assay: NCI-60 one-dose assay; type: cell-based; settings: Homo sapiens, SK-MEL-5 (Melanoma), read-out: Cell Inhibition Percent
[26] = system: SNB-75; assay: NCI-60 one-dose assay; type: cell-based; settings: Homo sapiens, SNB-75 (CNS cancer), read-out: Cell Inhibition Percent
[27] = system: T-47D; assay: NCI-60 one-dose assay; type: cell-based; settings: Homo sapiens, T47D, T-47D (Breast Cancer), read-out: Cell Inhibition Percent
[28] = system: U251; assay: NCI-60 one-dose assay; type: cell-based; settings: Homo sapiens, U-251, U251 (CNS cancer), read-out: Cell Inhibition Percent
[29] = system: UO-31; assay: NCI-60 one-dose assay; type: cell-based; settings: Homo sapiens, UO-31 (Renal Cancer), read-out: Cell Inhibition Percent
[30] = system: SK-MEL-2; assay: NCI-60 five-dose assay; type: cell-based, human; settings: SK-MEL-2 (Melanoma), 48 h; for GI50: read-out: GI50 Conc. per Cell Line

Structure (SMILES)	inhibition at 10 µM [1] [%]	inhibition at 10 µM [2] [%]	inhibition at 10 µM [3] [%]	inhibition at 10 µM [4] [%]	inhibition at 10 µM [5] [%]	inhibition at 10 µM [6] [%]	inhibition at 10 µM [7] [%]	inhibition at 10 µM [8] [%]	inhibition at 10 µM [9] [%]	inhibition at 10 µM [10] [%]	inhibition at 10 µM [11] [%]	inhibition at 10 µM [12] [%]	inhibition at 10 µM [13] [%]	inhibition at 10 µM [14] [%]	inhibition at 10 µM [15] [%]	inhibition at 10 µM [16] [%]	inhibition at 10 µM [17] [%]	inhibition at 10 µM [18] [%]	inhibition at 10 µM [19] [%]	inhibition at 10 µM [20] [%]	other results
O=C(NN=Cc1ccc([N+](=O)[O-])cc1)c1ccc2[nH]c(-c3ccc(Cl)cc3)nc2c1 [Compound 4c, N′-(4-Nitrobenzylidene)-2-(4-chlorophenyl)-1H-benzimidazole-5-carbohydrazide]	100	65.5	97.7	51	85.4	70.1	93.4	80.9	101	74.1	92.2	99.3	23.1	52.4	83.8	29.9	88.7	46.8	78.4	78.6	inhibition at 10 µM [21]: 89.2%; inhibition at 10 µM [22]: 68.4%; inhibition at 10 µM [23]: 78.3%; inhibition at 10 µM [24]: 33.3%; inhibition at 10 µM [25]: 97.4%; inhibition at 10 µM [26]: 30.7%; inhibition at 10 µM [27]: 89.5%; inhibition at 10 µM [28]: 77.7%; inhibition at 10 µM [29]: 57.4%; GI50 ([30]; Homo sapiens): 5.1 µM; TGI [30]: 21.90 µM
O=C(NN=Cc1ccc(Cl)cc1)c1ccc2[nH]c(-c3ccc(Cl)cc3)nc2c1 [Compound 4e, N′-(4-Chlorobenzylidene)-2-(4-chlorophenyl)-1H-benzimidazole-5-carbohydrazide]	43.9	127	124	91.8	102	95.3	94.2	127	156	80.3	159	120	90.5	61.2	100	72.3	153	76.3	85.8	125	inhibition at 10 µM [21]: 97.2%; inhibition at 10 µM [22]: 81.1%; inhibition at 10 µM [23]: 149%; inhibition at 10 µM [24]: 61.1%; inhibition at 10 µM [25]: 63.8%; inhibition at 10 µM [26]: 1.6%; inhibition at 10 µM [27]: 113%; inhibition at 10 µM [28]: 115%; inhibition at 10 µM [29]: 78.4%; LC50 ([30]; Homo sapiens): 11.4 µM; GI50 ([30]; Homo sapiens): 2.09 µM; TGI [30]: 4.64 µM
